{"source": "patent US20160138077A1", "about": "“MONITORING AND ASSESSING DEACETYLASE ENZYME ACTIVITY” (THE GENERAL HOSPITAL CORPORATION, priority 2013, published 2016)", "key": {"HeLa cells": {"test_system": "HeLa cells", "experiment": "Confocal fluorescence imaging of HDAC activity in HeLa cells", "type": "cell-based", "conditions": "5 μM probe, 2 hours", "method": "Imaging HDAC activity in HeLa cells with HP-1 and 2. An acid-washed, poly-lysine-treated sterile glass cover slip was added to each well of 6-well plate, and HeLa cells were plated at a seeding density of ˜2.5×10^5 cells/mL in 2 mL of growth medium. After 24 hours, the cells reached 80-85% confluence. For all experiments, solutions of HP-1 and HP-2 (200 mM each) were prepared in DMSO and diluted in HDAC buffer to a final concentration of 100 μM. SAHA solutions (100 mM) were prepared in DMSO and diluted in HDAC buffer to make a 100 μM solution. All solutions were prepared immediately prior to application to the cells. […]\nConfocal fluorescence image acquisition and analysis. Confocal fluorescence imaging was performed with a Zeiss laser scanning microscope 710 with a 63× objective lens and Zen 2009 software (Carl Zeiss). […] The mean fluorescence intensity of 10 cells per coverslip was measured using ImageJ software. […] The mean background signal was also measured and subtracted from the mean fluorescence signal within the cells. Mean fluorescence intensities and standard deviations were plotted in Microsoft Excel.\nImaging HDAC activity in HeLa cells with HP-1 and 2. […] Cover slips were mounted on a drop of Gel Mount (anti-fade with DAPI nuclear stain) and analyzed by confocal imaging.\nConfocal fluorescence imaging. […]"}, "Sirtuin 3": {"target": "T1, Sirtuin 3 (Homo sapiens, UniProt Q9NTG7)", "T1 construct": "purchased Cayman Chemicals", "T1 sequence (Q9NTG7 1-399)": "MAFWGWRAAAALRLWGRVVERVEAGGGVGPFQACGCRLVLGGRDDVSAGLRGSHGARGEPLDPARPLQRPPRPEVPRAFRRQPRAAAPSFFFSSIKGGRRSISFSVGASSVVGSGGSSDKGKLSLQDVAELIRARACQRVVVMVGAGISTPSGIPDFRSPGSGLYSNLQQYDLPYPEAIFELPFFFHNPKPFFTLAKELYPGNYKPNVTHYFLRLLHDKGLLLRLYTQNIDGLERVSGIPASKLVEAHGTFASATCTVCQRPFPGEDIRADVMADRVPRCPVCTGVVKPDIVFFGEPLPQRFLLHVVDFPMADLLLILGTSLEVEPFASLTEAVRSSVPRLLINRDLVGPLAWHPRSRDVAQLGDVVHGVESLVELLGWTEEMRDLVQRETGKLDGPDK", "experiment": "LCMS assay of sirtuin enzymatic action on HP-1", "type": "biochemical", "conditions": "Sirtuin 3, −SAHA; 5 μM HP-1, 12 hours at 37° C.", "method": "The enzymatic cleavage of HP-1 was analyzed by performing LCMS assays with sirtuin 1 and 3 (Cayman Chemicals) and the proteases chymotrypsin (Sigma-Aldrich), cathepsin (EMD Millipore), and pepsin* (Sigma-Aldrich). Solutions containing (i) vehicle with DMSO in HDAC buffer, (ii) 5 μM HP-1 in HDAC buffer, and (iii) 5 μM HP-1 and the enzyme in HDAC buffer were incubated for 12 hours at 37° C. Following incubation, a 20 μL aliquot of supernatant from each sample was analyzed by LCMS. Deacetylation of HP-1 was investigated by screening for the DHP-1 (M+H)^+ ion following positive electrospray ionization. All assay samples were analyzed in triplicate. […]\nHP-1 was not altered by sirtuins 1 and 3 or the proteases chymotrypsin, cathepsin and pepsin, as determined by LCMS. […] For Cathepsin B, the cleavage of the enzyme substrate, z-RR-pNA (Santa Cruz Biotechnology, Dallas, Tex.) was monitored using a Wallac EnVision 2103 Multilabel fluorescence plate reader (PerkinElmer, Waltham, Mass.) with a 405 nm excitation filter, a 406 nm emission filter, and a gain of 150. The cleavage of the pepsin substrate, Ac-Phe-Tyr-OH (Chem-Impex Inc.), was monitored by LCMS at pH 4. […]"}}, "data": [{"compound": "CC(=O)NC=CCCCCNC(=O)CCCCCNc1ccc([N+](=O)[O-])c2nonc12", "note": "[HP-1]", "values": [{"measurement": "intracellular NBD fluorescence", "setting": "HeLa cells; 10 μM SAHA added 15 min prior", "result": "reduces the level of fluorescence"}, {"measurement": "intracellular NBD fluorescence", "setting": "HeLa cells; absence of SAHA", "result": "robust intracellular fluorescent signal"}, {"measurement": "% HP-1 to DHP-1", "setting": "Sirtuin 3", "result": 0, "unit": "%"}]}]}
